In PubChem BioAssay (NCI) one finds TGI and GI50 data, which are given here for ten compounds.

Some test systems named below: A549 NSCLC; HT29 colon; CCRF-CEM leukemia; HOP-62 NSCLC; NCI-H522 lung; HL-60(TB) leukemia; OVCAR-8 ovarian; SF-268 CNS; 786-0 renal; SNB-19 CNS; KM12 colon; LOX IMVI melanoma; HCT-15 colon; SNB-75 CNS; T-47D breast.
Assay in all cases: NCI anticancer screen, dose series, 48 h

“And” between values parts separate entries of the source, which are not always exact repeats. Identical values can stand only once.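 The compound was tested at five concentrations on cells cultured in 96-well plates, with a 48-hour exposure period. GI50 is the concentration that inhibits growth by half. Definition used: TGI = concentration required for complete inhibition of growth.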 Where a SMILES comes first, the peptide text is derived from it. [ ]: non-standard residue; d: D form. The star is where a group is joined. ξ: configuration not given here. NMeF = CN[CH](Cc1ccccc1)C(=O)O; ξNMeF = CNC(Cc1ccccc1)C(=O)O; NMeV = CN[CH](C(=O)O)C(C)C; Boc = CC(C)(C)OC(=O)*; OBn = c1ccc(CO*)cc1

Consider `CC(C)C(NC(=O)OC(C)(C)C)C(=O)N(C)C(Cc1ccccc1)C(=O)N(C)C(C(=O)OCc1ccccc1)C(C)C` (stereo not drawn) (Boc-Val-[NMeF]-[NMeV]-OBn; configuration not given here), for which the TGI was more than 100 µM in the test with A549 NSCLC; 32.3 µM and > 100 µM in the test on HT29 colon; more than 100 µM with CCRF-CEM leukemia; more than 100 µM in the test on HOP-62 NSCLC; 29.7 µM and 69 µM in the test on NCI-H522 lung; > 100 µM and 53.9 µM in the test on HL-60(TB) leukemia. Moreover, the TGI with OVCAR-8 ovarian was more than 100 µM; with SF-268 CNS, more than 100 µM; with 786-0 renal it was more than 100 µM; in the test with SNB-19 CNS, more than 100 µM; in the test with KM12 colon, more than 100 µM; with LOX IMVI melanoma it was 35.7 µM and > 100 µM. The compound also gave a TGI in the test with HCT-15 colon of more than 100 µM. The GI50 is 17.8 µM and 39.1 µM in the test with CCRF-CEM leukemia; > 100 µM and 32.8 µM in the test with SNB-19 CNS; 38.2 µM and 82.9 µM in the test on KM12 colon; 16.3 µM and 62.9 µM in the test on LOX IMVI melanoma.

Take `CNC(=O)C(C)Oc1ccc(OCC2CCCCC2)cc1` (configuration not stated): the TGI with A549 NSCLC, in the test on HT29 colon, in the test on CCRF-CEM leukemia, in the test with NCI-H522 lung, in the test on HL-60(TB) leukemia and with OVCAR-8 ovarian was more than 100 µM each time. Further, the TGI in the test with SF-268 CNS, in the test on 786-0 renal, with SNB-75 CNS, in the test on SNB-19 CNS, in the test on KM12 colon and in the test with LOX IMVI melanoma was more than 100 µM each time. Besides, the TGI in the test with HCT-15 colon is more than 100 µM.

Regarding `Nc1nc(SCC(=O)c2ccccc2)c2[nH]cnc2n1`, the TGI with A549 NSCLC, in the test on HT29 colon, with CCRF-CEM leukemia, with HOP-62 NSCLC, in the test on NCI-H522 lung and in the test with HL-60(TB) leukemia was more than 100 µM in each case. Moreover, the TGI with OVCAR-8 ovarian was more than 100 µM; in the test with SF-268 CNS, more than 100 µM; with 786-0 renal, more than 100 µM; with SNB-75 CNS, 82.6 µM; in the test with SNB-19 CNS, more than 100 µM; with KM12 colon, more than 100 µM. The TGI with LOX IMVI melanoma and in the test with HCT-15 colon was more than 100 µM throughout.

Consider `CC(=O)[O-].CC(=O)[O-].O=C(N/N=C/c1cc(Cl)cc(Cl)c1[OH2+])c1ccncc1.[Mn+2]`, for which the TGI turned out to be 79.7 µM in the test with A549 NSCLC; 31.6 µM in the test with HT29 colon; 2.15 µM with CCRF-CEM leukemia; 68 µM in the test with HOP-62 NSCLC; 14.8 µM with NCI-H522 lung; 1.12 µM in the test with HL-60(TB) leukemia. For the same compound, the TGI in the test on OVCAR-8 ovarian stood at 10.1 µM; with SF-268 CNS, 27.2 µM; with 786-0 renal, 15.6 µM; with SNB-75 CNS, 30.2 µM; with SNB-19 CNS, 36.1 µM; in the test with KM12 colon, 23.8 µM. The TGI amounted to 15.2 µM with LOX IMVI melanoma and 25.1 µM with HCT-15 colon.

`COc1cc(S(=O)(=O)Nc2ccc(-c3csc(N4C(=O)C(C)SC4c4cccs4)n3)cc2)ccc1Cl` (configuration not stated): the TGI in the test on HT29 colon is more than 100 µM; with CCRF-CEM leukemia, 52.2 µM; with HOP-62 NSCLC, more than 100 µM; in the test with NCI-H522 lung, 56.6 µM; in the test on HL-60(TB) leukemia, 41.7 µM; in the test with T-47D breast, 27.3 µM. The TGI in the test on OVCAR-8 ovarian is more than 100 µM; in the test with SF-268 CNS it was more than 100 µM; in the test on 786-0 renal, more than 100 µM; in the test with KM12 colon, 23 µM; in the test on LOX IMVI melanoma, 96.7 µM; with HCT-15 colon it was more than 100 µM.

Consider `O=C1CSC(c2ccccc2O)N1c1ccc2c(c1)Oc1c(Cl)c3c(c(Cl)c1=N2)Oc1cc(N2C(=O)CSC2c2ccccc2O)ccc1N=3` (configuration not stated), for which the TGI in the test on HT29 colon is more than 100 µM; in the test with CCRF-CEM leukemia, more than 100 µM; in the test on HOP-62 NSCLC, more than 100 µM; in the test with NCI-H522 lung, 52 µM; with HL-60(TB) leukemia, more than 100 µM; in the test on T-47D breast it was more than 100 µM. Besides, the TGI in the test on OVCAR-8 ovarian, in the test with SF-268 CNS, in the test with 786-0 renal, in the test with KM12 colon, with LOX IMVI melanoma and in the test on HCT-15 colon was more than 100 µM throughout.

For `C=C(Cl)/C(=C\Cl)CCC(Cl)C(C)C` (configuration not stated) (tested in a mixture with another compound), the TGI was more than 100 µM in the test on A549 NSCLC; 36.8 µM in the test on HT29 colon; more than 100 µM in the test with CCRF-CEM leukemia; 32.6 µM with HOP-62 NSCLC; 16.8 µM in the test on NCI-H522 lung; more than 100 µM in the test with HL-60(TB) leukemia. Moreover, the TGI in the test with SF-268 CNS amounted to 37.1 µM; with 786-0 renal it was 29.5 µM; in the test on SNB-75 CNS, 32.5 µM; with SNB-19 CNS, 31.5 µM; in the test with KM12 colon, 27.6 µM; with LOX IMVI melanoma, 3.67 µM.

In the case of `Cc1ccc(Nc2cccc3c2C(=O)c2cccc(Nc4ccc(C)cc4S(=O)(=O)O)c2C3=O)c(S(=O)(=O)O)c1`, the TGI in the test on A549 NSCLC, with CCRF-CEM leukemia, with HOP-62 NSCLC, in the test with NCI-H522 lung, with HL-60(TB) leukemia and in the test on OVCAR-8 ovarian was more than 100 µM throughout. The TGI in the test on SF-268 CNS, in the test with 786-0 renal, in the test on SNB-75 CNS, in the test with SNB-19 CNS, with KM12 colon and in the test with HCT-15 colon was more than 100 µM each time.

Regarding `CCOC(=O)c1ncn(CCc2ccc(Cl)cc2)c1C`, the TGI in the test on A549 NSCLC, with HT29 colon, in the test with CCRF-CEM leukemia, with HOP-62 NSCLC, in the test on NCI-H522 lung and in the test with HL-60(TB) leukemia was more than 100 µM each time. Moreover, the TGI in the test on OVCAR-8 ovarian, in the test with SF-268 CNS, in the test with 786-0 renal, with SNB-19 CNS, in the test with KM12 colon and in the test with LOX IMVI melanoma was more than 100 µM each time. In addition, in the test on HCT-15 colon, the TGI is more than 100 µM.

Consider `CC(C)[C@@H](C(=O)N(C)[C@H](C(=O)N1CCC[C@H]1C(=O)OCc1ccccc1)C(C)C)N(C)C(=O)C(Cc1ccccc1)N(C)C(=O)[C@H](NC(=O)OC(C)(C)C)C(C)C` (some centres not stated) (Boc-[dV][ξNMeF][NMeV][NMeV]P-OBn), for which the TGI in the test on A549 NSCLC was more than 31.6 µM; in the test on HT29 colon, more than 31.6 µM; in the test with CCRF-CEM leukemia, more than 31.6 µM; with HOP-62 NSCLC, more than 31.6 µM; in the test on NCI-H522 lung, more than 100 µM; in the test on HL-60(TB) leukemia, more than 31.6 µM. Moreover, the TGI in the test on OVCAR-8 ovarian was more than 31.6 µM; in the test on SF-268 CNS it was more than 31.6 µM; in the test with 786-0 renal, more than 69.7 µM; with SNB-75 CNS, more than 100 µM; with SNB-19 CNS, more than 31.6 µM; with LOX IMVI melanoma, more than 31.6 µM. Besides, in the test with HCT-15 colon, the TGI is more than 31.6 µM.
